Experimental data reported in PubChem BioAssay (NCI).
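96-well plates; 48 h exposure; 5 concentrations. Endpoints by linear interpolation between flanking doses. Not reached: highest tested concentration assigned. GI50 is the concentration that inhibits growth by half. At the TGI there is no net growth.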

Columns and labels:
Assay in all cases: inhibition of tumour cell growth, NCI panel, 48 h
NCI-H23 lung = tested on: NCI-H23 lung
NCI-H460 lung = tested on: NCI-H460 lung
NCI-H522 lung = tested on: NCI-H522 lung
NCI/ADR-RES ovarian = tested on: NCI/ADR-RES ovarian
OVCAR-3 ovarian = tested on: OVCAR-3 ovarian
OVCAR-4 ovarian = tested on: OVCAR-4 ovarian
OVCAR-5 ovarian = tested on: OVCAR-5 ovarian
OVCAR-8 ovarian = tested on: OVCAR-8 ovarian
PC-3 prostate = tested on: PC-3 prostate
RPMI-8226 leukemia = tested on: RPMI-8226 leukemia
RXF 393 renal = tested on: RXF 393 renal
SF-268 CNS = tested on: SF-268 CNS
SF-295 CNS = tested on: SF-295 CNS
SF-539 CNS = tested on: SF-539 CNS
SK-MEL-2 melanoma = tested on: SK-MEL-2 melanoma
SK-MEL-28 melanoma = tested on: SK-MEL-28 melanoma
SK-MEL-5 melanoma = tested on: SK-MEL-5 melanoma
SK-OV-3 ovarian = tested on: SK-OV-3 ovarian
SN12C renal = tested on: SN12C renal
SNB-19 CNS = tested on: SNB-19 CNS
SNB-75 CNS = tested on: SNB-75 CNS
SW-620 colon = tested on: SW-620 colon
T-47D breast = tested on: T-47D breast
TK-10 renal = tested on: TK-10 renal
U251 CNS = tested on: U251 CNS
UACC-257 melanoma = tested on: UACC-257 melanoma
UACC-62 melanoma = tested on: UACC-62 melanoma
UO-31 renal = tested on: UO-31 renal

Clc1nc(Cl)c2ncn(C/C=C\COc3cccc(OC/C=C\Cn4cnc5c(Cl)nc(Cl)nc54)c3)c2n1
GI50 (NCI-H23 lung): > 100 µM | TGI (NCI-H23 lung): > 100 µM | GI50 (NCI-H460 lung): > 100 µM | TGI (NCI-H460 lung): > 100 µM | GI50 (NCI-H522 lung): > 100 µM | TGI (NCI-H522 lung): > 100 µM | GI50 (NCI/ADR-RES ovarian): > 100 µM | TGI (NCI/ADR-RES ovarian): > 100 µM | GI50 (OVCAR-3 ovarian): > 100 µM | TGI (OVCAR-3 ovarian): > 100 µM | GI50 (OVCAR-4 ovarian): > 100 µM | TGI (OVCAR-4 ovarian): > 100 µM | GI50 (OVCAR-5 ovarian): > 100 µM | TGI (OVCAR-5 ovarian): > 100 µM | GI50 (OVCAR-8 ovarian): > 100 µM | TGI (OVCAR-8 ovarian): > 100 µM | GI50 (PC-3 prostate): > 100 µM | TGI (PC-3 prostate): > 100 µM | GI50 (RPMI-8226 leukemia): > 100 µM | TGI (RPMI-8226 leukemia): > 100 µM | GI50 (RXF 393 renal): 48.8 µM | TGI (RXF 393 renal): > 100 µM | GI50 (SF-268 CNS): > 100 µM | TGI (SF-268 CNS): > 100 µM | GI50 (SF-295 CNS): > 100 µM | TGI (SF-295 CNS): > 100 µM | GI50 (SF-539 CNS): > 100 µM | TGI (SF-539 CNS): > 100 µM | GI50 (SK-MEL-2 melanoma): > 100 µM | TGI (SK-MEL-2 melanoma): > 100 µM | GI50 (SK-MEL-28 melanoma): > 100 µM | TGI (SK-MEL-28 melanoma): > 100 µM | GI50 (SK-MEL-5 melanoma): > 100 µM | TGI (SK-MEL-5 melanoma): > 100 µM | GI50 (SK-OV-3 ovarian): > 100 µM | TGI (SK-OV-3 ovarian): > 100 µM | GI50 (SN12C renal): > 100 µM | TGI (SN12C renal): > 100 µM | GI50 (SNB-19 CNS): > 100 µM | TGI (SNB-19 CNS): > 100 µM | GI50 (SNB-75 CNS): > 100 µM | TGI (SNB-75 CNS): > 100 µM | GI50 (SW-620 colon): > 100 µM | TGI (SW-620 colon): > 100 µM | GI50 (T-47D breast): 88.1 µM | TGI (T-47D breast): > 100 µM | GI50 (TK-10 renal): > 100 µM | TGI (TK-10 renal): > 100 µM | GI50 (U251 CNS): > 100 µM | TGI (U251 CNS): > 100 µM | GI50 (UACC-257 melanoma): > 100 µM | TGI (UACC-257 melanoma): > 100 µM | GI50 (UACC-62 melanoma): > 100 µM | TGI (UACC-62 melanoma): > 100 µM | GI50 (UO-31 renal): > 100 µM | TGI (UO-31 renal): > 100 µM
